Our source for the IC50 values is the Kinase Knowledgebase extract (Sharma et al. 2016).

pIC50: −log10 of the molar value.

For this experiment, the target named is MAPK14 (UniProt Q16539). In words: Inhibition of MAPK14 Kinase Activity.
MAPK14, sequence (Q16539 whole entry, looked up): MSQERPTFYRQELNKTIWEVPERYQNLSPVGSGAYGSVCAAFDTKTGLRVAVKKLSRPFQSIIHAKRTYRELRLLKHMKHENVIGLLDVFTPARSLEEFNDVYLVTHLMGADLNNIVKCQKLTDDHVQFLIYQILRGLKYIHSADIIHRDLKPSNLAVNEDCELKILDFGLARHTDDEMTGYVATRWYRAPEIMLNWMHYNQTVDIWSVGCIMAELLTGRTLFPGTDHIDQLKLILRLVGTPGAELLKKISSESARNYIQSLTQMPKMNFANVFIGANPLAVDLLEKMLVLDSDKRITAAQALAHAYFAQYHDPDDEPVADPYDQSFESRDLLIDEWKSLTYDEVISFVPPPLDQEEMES
The compound `COc1ccccc1-c1cccc(N(Cc2ccccc2F)C(N)=O)n1` had a pIC50 of less than 4.00.

In the case of `NC(=O)N(Cc1c(F)cccc1F)c1ccc(CO)c(-c2ccccc2Cl)n1`, the pIC50 is less than 4.00.

In the case of `COc1ccccc1-c1cccc(N(Cc2ccccc2Cl)C(N)=O)n1`, the negative-log IC50 (pIC50) was less than 4.00.

Compound `NC(=O)N(Cc1ccc(Cl)cc1Cl)c1cccc(-c2ccc(Cl)cc2)n1` had a negative logarithm of the IC50 (pIC50) of 4.00.

As to `NC(=O)N(Cc1ccccc1Cl)c1cccc(-c2ccc(Cl)cc2)n1`, the pIC50 is less than 4.00.

As to `Cc1cc(F)ccc1-c1nc(N(Cc2c(F)cccc2F)C(N)=O)ccc1CO`, the pIC50 is 5.66.

Take `NC(=O)N(Cc1c(F)cccc1F)c1ccc(CO)c(-c2ccc(F)cc2F)n1`: the pIC50 is 5.80.

`NC(=O)N(Cc1ccccc1Cl)c1cccc(-c2ccccc2Cl)n1` showed a pIC50 of 6.05.

As for `Cc1ccccc1-c1cccc(N(Cc2c(Cl)cccc2Cl)C(N)=O)n1`, the pIC50 is 5.05.

For the compound `COc1ccc(-c2cccc(N(Cc3ccccc3F)C(N)=O)n2)cc1`, the negative logarithm of the IC50 (pIC50) was less than 4.00.

`NC(=O)N(Cc1ccccc1F)c1cccc(-c2ccc(Cl)cc2)n1` had a pIC50 of less than 4.00.

`NC(=O)N(Cc1ccccc1F)c1ccc(CO)c(-c2ccccc2Cl)n1` showed a pIC50 of 6.00.

For the compound `NC(=O)N(Cc1ccccc1Cl)c1cccc(-c2ccccc2F)n1`, the pIC50 is less than 4.00.

In turn, `NC(=O)N(Cc1ccccc1F)c1cccc(-c2ccccc2Cl)n1` showed a pIC50 of 6.02.

Consider `NC(=O)N(Cc1ccc(F)cc1)c1cccc(-c2ccccc2Cl)n1`, for which the pIC50 was 5.95. This pIC50 and that of the compound before are within 0.2 log units of each other.

As to `NC(=O)N(Cc1ccc(Cl)cc1Cl)c1cccc(-c2ccccc2Cl)n1`, the pIC50 is 4.60. This pIC50 lies 1.35 log units lower than the previous one.

Compound `NC(=O)N(Cc1ccccc1Cl)c1cccc(-c2ccc(F)cc2)n1` gave a pIC50 of less than 4.00.

In turn, `NC(=O)N(Cc1ccccc1F)c1cccc(-c2ccc(F)cc2)n1` had a pIC50 of less than 4.00.

In turn, `Cc1ccccc1-c1cccc(N(CCc2ccccc2)C(N)=O)n1` had a pIC50 of 6.01.

With `Cc1cc(C)cc(-c2cccc(N(Cc3ccccc3Cl)C(N)=O)n2)c1`, the negative logarithm of the IC50 (pIC50) was less than 4.00.

In turn, `Cc1ccccc1-c1nc(N(Cc2c(Cl)cccc2Cl)C(N)=O)ccc1CO` showed a pIC50 of less than 4.00.

Turning to `Cc1cc(F)ccc1-c1cccc(N(Cc2c(Cl)cccc2Cl)C(N)=O)n1`, the pIC50 is 5.67.

`NC(=O)N(Cc1c(Cl)cccc1Cl)c1ccc(CO)c(-c2ccccc2Cl)n1` showed a pIC50 of less than 4.00.

With `NC(=O)N(Cc1ccccc1Cl)c1cccc(-c2cc(F)ccc2F)n1`, the pIC50 is 4.45.

Regarding `Cc1ccccc1-c1cccc(N(Cc2ccccc2F)C(N)=O)n1`, the negative logarithm of the IC50 (pIC50) was 6.05. Compared with the last compound, the pIC50 is 1.60 log units higher.

The compound `Cc1ccccc1-c1cccc(N(Cc2ccccc2Cl)C(N)=O)n1` showed a pIC50 of 6.06.

For `Cc1cc(F)ccc1-c1cccc(N(Cc2c(F)cccc2F)C(N)=O)n1`, the negative logarithm of the IC50 (pIC50) was 5.55. This pIC50 lies 0.51 log units lower than the previous one.

Turning to `NC(=O)N(Cc1ccccc1)c1cccc(-c2ccccc2Cl)n1`, the pIC50 is 5.55.

In turn, `NC(=O)N(Cc1c(Cl)cccc1Cl)c1cccc(-c2ccccc2Cl)n1` had a pIC50 of less than 4.00.

On to `Cc1cc(F)ccc1-c1cccc(N(Cc2cccc(F)c2)C(N)=O)n1`, for which the pIC50 is 5.90.

Compound `Cc1ccccc1-c1cccc(N(Cc2c(F)cccc2F)C(N)=O)n1` showed a pIC50 of 5.50.

The compound `Cc1ccccc1-c1cccc(N(Cc2cccc(F)c2)C(N)=O)n1` had a pIC50 of 6.12.

As for `Cc1cc(F)ccc1-c1cccc(N(Cc2ccccc2Cl)C(N)=O)n1`, the pIC50 is less than 4.00.

As for `NC(=O)N(Cc1ccccc1Cl)c1cccc(-c2cccc(F)c2)n1`, the pIC50 is 4.10.

`NC(=O)N(Cc1c(Cl)cccc1Cl)c1cccc(-c2c(F)cccc2F)n1`: the negative-log IC50 (pIC50) was 4.90.

`NC(=O)N(Cc1cccc(F)c1)c1cccc(-c2ccccc2Cl)n1` had a pIC50 of 5.95.

For the compound `Cc1cc(F)ccc1-c1nc(N(Cc2c(Cl)cccc2Cl)C(N)=O)ccc1CO`, the pIC50 is 4.00.
